Source: ChEMBL document CHEMBL1909294, “Translating clinical findings into knowledge in drug safety evaluation--drug induced liver injury prediction system (DILIps)” (PLoS Comput Biol, 2011)

Key:
Hepatotoxicity [1] = test system: Hepatotoxicity;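 for HepSE elevated liver function tests: hepatic side effect score for raised liver function tests, as recorded in the DILIps training set used for predicting drug-induced liver injury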; for HepSE hepatic failure: call rule not given here;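 for HepSE hepatitis: Hepatitis-related hepatic side effect score taken from the training data of DILIps, a prediction system for drug-induced liver injury; call rule not given here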;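 for HepSE jaundice: Jaundice-related hepatic side-effect score drawn from the training data of the DILIps (drug-induced liver injury prediction system); call rule not given here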; for HepSE liver disease: call rule not given here;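 for HepSE liver fatty: hepatic side effect score for fatty liver, taken from the DILIps training set for predicting drug-induced liver injury; call rule not given here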;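 for HepSE liver function tests abnormal: hepatic side effect score taken from the DILIps (drug-induced liver injury prediction system) training data, here covering abnormal liver function test findings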
Hepatotoxicity [2] = test system: Hepatotoxicity; remark: listed apart in the source;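 for HepSE elevated liver function tests: hepatic side effect score for raised liver function tests, as recorded in the DILIps training set used for predicting drug-induced liver injury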; for HepSE hepatic failure: call rule not given here;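 for HepSE hepatitis: Hepatitis-related hepatic side effect score taken from the training data of DILIps, a prediction system for drug-induced liver injury; call rule not given here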;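 for HepSE jaundice: Jaundice-related hepatic side-effect score drawn from the training data of the DILIps (drug-induced liver injury prediction system); call rule not given here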;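 for HepSE liver fatty: hepatic side effect score for fatty liver, taken from the DILIps training set for predicting drug-induced liver injury; call rule not given here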;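 for HepSE liver function tests abnormal: hepatic side effect score taken from the DILIps (drug-induced liver injury prediction system) training data, here covering abnormal liver function test findings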
Hepatotoxicity [3] = test system: Hepatotoxicity; remark: listed apart in the source;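 for HepSE elevated liver function tests: hepatic side effect score for raised liver function tests, as recorded in the DILIps training set used for predicting drug-induced liver injury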; for HepSE hepatic failure: call rule not given here;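 for HepSE hepatitis: Hepatitis-related hepatic side effect score taken from the training data of DILIps, a prediction system for drug-induced liver injury; call rule not given here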;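 for HepSE jaundice: Jaundice-related hepatic side-effect score drawn from the training data of the DILIps (drug-induced liver injury prediction system); call rule not given here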;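 for HepSE liver fatty: hepatic side effect score for fatty liver, taken from the DILIps training set for predicting drug-induced liver injury; call rule not given here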;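 for HepSE liver function tests abnormal: hepatic side effect score taken from the DILIps (drug-induced liver injury prediction system) training data, here covering abnormal liver function test findings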
Hepatotoxicity [4] = test system: Hepatotoxicity; remark: listed apart in the source;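 for HepSE elevated liver function tests: hepatic side effect score for raised liver function tests, as recorded in the DILIps training set used for predicting drug-induced liver injury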; for HepSE hepatic failure: call rule not given here;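 for HepSE hepatitis: Hepatitis-related hepatic side effect score taken from the training data of DILIps, a prediction system for drug-induced liver injury; call rule not given here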;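 for HepSE jaundice: Jaundice-related hepatic side-effect score drawn from the training data of the DILIps (drug-induced liver injury prediction system); call rule not given here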;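 for HepSE liver fatty: hepatic side effect score for fatty liver, taken from the DILIps training set for predicting drug-induced liver injury; call rule not given here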;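 for HepSE liver function tests abnormal: hepatic side effect score taken from the DILIps (drug-induced liver injury prediction system) training data, here covering abnormal liver function test findings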
Hepatotoxicity [5] = test system: Hepatotoxicity; remark: listed apart in the source; for HepSE hepatic failure: call rule not given here
Hepatotoxicity [6] = test system: Hepatotoxicity; remark: listed apart in the source; for HepSE hepatic failure: call rule not given here
Hepatotoxicity [7] = test system: Hepatotoxicity; remark: listed apart in the source
Hepatotoxicity [8] = test system: Hepatotoxicity; remark: listed apart in the source
Hepatotoxicity [9] = test system: Hepatotoxicity; remark: listed apart in the source
Hepatotoxicity [10] = test system: Hepatotoxicity; remark: listed apart in the source
Hepatotoxicity [11] = test system: Hepatotoxicity; remark: listed apart in the source
Hepatotoxicity [12] = test system: Hepatotoxicity; remark: listed apart in the source
Hepatotoxicity [13] = test system: Hepatotoxicity; remark: listed apart in the source
Hepatotoxicity [14] = test system: Hepatotoxicity; remark: listed apart in the source

| Compound | HepSE_hepatic failure (Hepatotoxicity [1]) | HepSE_jaundice (Hepatotoxicity [2]) | HepSE_liver function tests abnormal (Hepatotoxicity [3]) | HepSE_hepatitis (Hepatotoxicity [4]) | HepSE_elevated liver function tests (Hepatotoxicity [5]) | HepSE_liver fatty (Hepatotoxicity [6]) | HepSE_liver disease (Hepatotoxicity [7]) | HepSE_cholelithiasis (Hepatotoxicity [8]) | HepSE_cirrhosis (Hepatotoxicity [9]) | HepSE_cholecystitis (Hepatotoxicity [10]) | HepSE_Combined Scores (Hepatotoxicity [11]) | HepSE_hepatic necrosis (Hepatotoxicity [12]) | HepSE_bilirubinemia (Hepatotoxicity [13]) | HepSE_hepatomegaly (Hepatotoxicity [14]) | also measured |
| --- | --- | --- | --- | --- | --- | --- | --- | --- | --- | --- | --- | --- | --- | --- | --- |
| CC[C@@H]1/C=C(\C)C[C@H](C)C[C@H](OC)[C@H]2O[C@@](O)(C(=O)C(=O)N3CCCC[C@H]3C(=O)O[C@H](/C(C)=C/[C@@H]3CC[C@H](Cl)[C@H](OC)C3)[C@H](C)[C@@H](O)CC1=O)[C@H](C)C[C@@H]2OC [PIMECROLIMUS] | 0 | 0 | 0 | 0 | 0 | 0 | 0 | 0 | 0 | 0 | 0 | 0 | 0 | 0 | – |
| O=c1[nH]c2ccccc2n1C1CCN(CCCC(c2ccc(F)cc2)c2ccc(F)cc2)CC1 [PIMOZIDE] | 0 | 0 | 0 | 0 | 0 | 0 | 0 | 0 | 0 | 0 | 0 | 0 | 0 | 0 | – |
| COc1cc(Br)c(C[N+]2(CCOCCC3CCC4CC3C4(C)C)CCOCC2)cc1OC.[Br-] (stereo not drawn) [PINAVERIUM BROMIDE] | – | – | – | – | – | – | – | – | – | – | – | – | – | – | HepSE_hepatic failure (Hepatotoxicity [1]; Liver): 0; HepSE_jaundice (Hepatotoxicity [2]; Liver): 0; HepSE_liver function tests abnormal (Hepatotoxicity [3]; Liver): 0; HepSE_hepatitis (Hepatotoxicity [4]; Liver): 0; HepSE_elevated liver function tests (Hepatotoxicity [5]; Liver): 0; HepSE_liver fatty (Hepatotoxicity [6]; Liver): 0; HepSE_liver disease (Hepatotoxicity [7]; Liver): 0; HepSE_cholelithiasis (Hepatotoxicity [8]; Liver): 0; HepSE_cirrhosis (Hepatotoxicity [9]; Liver): 0; HepSE_cholecystitis (Hepatotoxicity [10]; Liver): 0; HepSE_Combined Scores (Hepatotoxicity [11]; Liver): 0; HepSE_hepatic necrosis (Hepatotoxicity [12]; Liver): 0; HepSE_bilirubinemia (Hepatotoxicity [13]; Liver): 0; HepSE_hepatomegaly (Hepatotoxicity [14]; Liver): 0 |
| CC(C)NCC(O)COc1cccc2[nH]ccc12 (stereo not drawn) [PINDOLOL] | 0 | 0 | 0 | 0 | 0 | 0 | 0 | 0 | 0 | 0 | 0 | 0 | 0 | 0 | – |
| CCc1ccc(CCOc2ccc(CC3SC(=O)NC3=O)cc2)nc1 (stereo not drawn) [PIOGLITAZONE] | 1 | 0 | 1 | 1 | 0 | 0 | 0 | 0 | 0 | 0 | 3 | 0 | 0 | 0 | – |
| CCN1CCN(C(=O)N[C@@H](C(=O)N[C@@H]2C(=O)N3[C@@H]2SC(C)(C)[C@@H]3C(=O)O)c2ccccc2)C(=O)C1=O [PIPERACILLIN] | 0 | 0 | 0 | 1 | 0 | 0 | 1 | 0 | 0 | 0 | 3 | 0 | 1 | 0 | – |
| CN(C)S(=O)(=O)c1ccc2c(c1)N(CCCN1CCC(CCO)CC1)c1ccccc1S2 [PIPOTIAZINE] | 0 | 1 | 0 | 0 | 0 | 0 | 0 | 0 | 0 | 0 | 1 | 0 | 0 | 0 | – |
| CC(C)(C)NCC(O)c1ccc(O)c(CO)n1 (stereo not drawn) [PIRBUTEROL] | 0 | 0 | 0 | 0 | 0 | 0 | 0 | 0 | 0 | 0 | 0 | 0 | 0 | 0 | – |
| CN1CCC(=C2c3ccccc3CCc3sccc32)CC1 [PIZOTYLINE] | 0 | 0 | 0 | 0 | 0 | 0 | 0 | 0 | 0 | 0 | 0 | 0 | 0 | 0 | – |
| COc1cc([C@@H]2c3cc4c(cc3[C@H](O)[C@H]3COC(=O)[C@H]23)OCO4)cc(OC)c1OC [PODOFILOX] | 0 | 0 | 0 | 0 | 0 | 0 | 0 | 0 | 0 | 0 | 0 | 0 | 0 | 0 | – |
| CN1C(CSCC(F)(F)F)Nc2cc(Cl)c(S(N)(=O)=O)cc2S1(=O)=O (stereo not drawn) [POLYTHIAZIDE] | 0 | 1 | 0 | 0 | 0 | 0 | 0 | 0 | 0 | 0 | 1 | 0 | 0 | 0 | – |
| CC[C@@H]([C@H](C)O)n1ncn(-c2ccc(N3CCN(c4ccc(OC[C@@H]5CO[C@@](Cn6cncn6)(c6ccc(F)cc6F)C5)cc4)CC3)cc2)c1=O [POSACONAZOLE] | 1 | 1 | 1 | 1 | 0 | 0 | 0 | 0 | 0 | 0 | 6 | 0 | 1 | 1 | – |
| [Cl-].[K+] [POTASSIUM CHLORIDE] | 0 | 0 | 0 | 0 | 0 | 0 | 0 | 0 | 0 | 0 | 0 | 0 | 0 | 0 | – |
| C[n+]1ccccc1/C=N/O [PRALIDOXIME] | 0 | 0 | 0 | 0 | 0 | 0 | 0 | 0 | 0 | 0 | 0 | 0 | 0 | 0 | – |
| CCCN[C@H]1CCc2nc(N)sc2C1 [PRAMIPEXOLE] | – | – | – | – | – | – | – | – | – | – | – | – | – | – | HepSE_hepatic failure (Hepatotoxicity [1]; Liver): 0; HepSE_jaundice (Hepatotoxicity [2]; Liver): 0; HepSE_liver function tests abnormal (Hepatotoxicity [3]; Liver): 0; HepSE_hepatitis (Hepatotoxicity [4]; Liver): 0; HepSE_elevated liver function tests (Hepatotoxicity [5]; Liver): 0; HepSE_liver fatty (Hepatotoxicity [6]; Liver): 0; HepSE_liver disease (Hepatotoxicity [7]; Liver): 0; HepSE_cholelithiasis (Hepatotoxicity [8]; Liver): 1; HepSE_cirrhosis (Hepatotoxicity [9]; Liver): 0; HepSE_cholecystitis (Hepatotoxicity [10]; Liver): 1; HepSE_Combined Scores (Hepatotoxicity [11]; Liver): 2; HepSE_hepatic necrosis (Hepatotoxicity [12]; Liver): 0; HepSE_bilirubinemia (Hepatotoxicity [13]; Liver): 0; HepSE_hepatomegaly (Hepatotoxicity [14]; Liver): 0 |
| CC[C@H](C)C(=O)O[C@H]1C[C@H](O)C=C2C=C[C@H](C)[C@H](CC[C@@H](O)C[C@@H](O)CC(=O)O)[C@H]21 [PRAVASTATIN] | 0 | 1 | 0 | 1 | 0 | 0 | 0 | 0 | 1 | 0 | 4 | 1 | 0 | 0 | – |
| COc1cc2nc(N3CCN(C(=O)c4ccco4)CC3)nc(N)c2cc1OC [PRAZOSIN] | 0 | 0 | 0 | 0 | 0 | 0 | 0 | 0 | 0 | 0 | 0 | 0 | 0 | 0 | – |
